In patent US20100004267A1, “LIQUID PREPARATION” (ASUBIO PHARMA CO., LTD., priority 2006, published 2010):

Key:
[1] = Stability test based on difference of pH buffer, 6 months (Test example 4); format: physicochemical; parameters: key to Insoluble materials: ◯ means absence of insoluble matters; X: × means presence of insoluble matters
Protocol: According to experimental formulations and target pH shown in Table 4 below, liquid preparations were prepared in the following manner.
After filtering this solution under reduced pressure, 20 mL of this solution was filled into a brown ampule subjected to inner wall treatment by SiO2 glass film (Silicoat ampule; brown 20 mL-volume; available from FUJI GLASS CO., LTD.), and then the ampule was sealed. Using high-pressure steam sterilizer (autoclave), the ampule was autoclaved in a setting condition: 121° C./24 minutes.
The samples were stored at 5° C., 25° C./60% relative humidity (RH), […] were evaluated in time series until a lapse of 6 months, after evaluating presence/absence of insoluble foreign matters after autoclave sterilization. For evaluation of insoluble foreign matters, an appearance checker was used and observation was conducted under 1,000 Lux. […]
Likewise the foregoing (1) liquid preparation with acetic acid buffer system (for pH adjustment, 1 mol/L or 0.1 mol/L hydrochloric acid was used), each sample was prepared according to the experimental formulations and target pH shown in Table 4 below, and each sample was stored at 5° C., 25° C./60% relative humidity (RH), […] were evaluated in time-series until a lapse of 6 months, after evaluating presence/absence of insoluble foreign matters after autoclave sterilization. […]

[2] = Examination on prevention of light decomposition (Test example 5); format: physicochemical
Protocol: To 800 mL of purified water, 100 g of Captisol (available from CyDex Inc.) serving as a solubilizing agent, 1 g of sodium bisulfite (available from JUNSEI CHEMICAL) serving as an antioxidant, and 5 g of SUN N8075 were sequentially dissolved, and the volume was adjusted to precisely 1,000 mL with purified water, and filtered under reduced pressure. Then each 20 mL of the solution was filled into a colorless ampule (Silicoat ampule, white, 20 mL capacity, available from FUJI GLASS CO., LTD.) and a brown ampule (Silicoat ampule, brown, 20 mL capacity, available from FUJI GLASS CO., LTD.), and then the ampule was sealed. Using autoclave (FLC-M09S30WZ, available from SAKURA SEIKI Co., Ltd.), autoclave sterilization was conducted in a setting condition: 121° C./24 minutes.
A sample of each of these ampules was stored under D65 lamp 2,000 Lux, and irradiated with 40, 80, 120×10^4 Lux, and then SUN N8075 related substances were measured with a HPLC device. The related substances were calculated as a peak ratio of the total related substances, relative to SUN N8075 peak area.
To 150 mL of purified water, a predetermined amount (none, 0.05 g, 0.1 g and 0.2 g) of sodium bisulfite (available from JUNSEI CHEMICAL) serving as an antioxidant, and 1 g of SUN N8075 were sequentially dissolved, and the volume was adjusted to precisely 200 mL with purified water. After filtering under reduced pressure, the solution was bubbled with nitrogen gas for 5 minutes. Then 20 mL of the solution was immediately filled into a brown ampule (Silicoat ampule, brown, 20 mL capacity, available from FUJI GLASS CO., LTD.) having subjected to nitrogen gas replacement, and then the ampule was sealed. Using autoclave (FLC-M09S30WZ, available from SAKURA SEIKI Co., Ltd.), autoclave sterilization was conducted in a setting condition: 121° C./24 minutes.
A sample of each of these ampules was stored under D65 lamp 2,000 Lux, and irradiated with 40×10^4 Lux, and then SUN N8075 related substances were measured with a HPLC device. The related substances were calculated as a peak ratio of the total related substances, relative to SUN N8075 peak area.
As a control sample, 1 g of SUN N8075 was dissolved into 150 mL of purified water, and the volume was adjusted precisely to 200 mL with purified water. Then the solution was filtered under reduced pressure, and bubbled with nitrogen gas for 5 minutes. Then 20 mL of the solution was immediately filled into a brown ampule (Silicoat ampule, brown, 20 mL capacity, available from FUJI GLASS CO., LTD.) replaced with nitrogen gas, and then the ampule was sealed.
This was prepared as a control sample at the start of the test, and SUN N8075 related substances were measured in the similar manner.

[3] = acetic acid/sodium acetate buffer, Captisol 10.0%, pH at preparation 3.8 (Table 4 no. 3), 40° C./75% RH/6 months
[4] = acetic acid/sodium acetate buffer, Captisol 10.0%, pH at preparation 4.2 (Table 4 no. 4), 40° C./75% RH/6 months
[5] = glycine buffer, Captisol 7.5%, pH at preparation 3.8 (Table 4 no. 5), 40° C./75% RH/6 months
[6] = glycine buffer, Captisol 7.5%, pH at preparation 4.2 (Table 4 no. 6), 40° C./75% RH/6 months
[7] = glycine buffer, Captisol 10.0%, pH at preparation 3.8 (Table 4 no. 7), 40° C./75% RH/6 months
[8] = glycine buffer, Captisol 10.0%, pH at preparation 4.2 (Table 4 no. 8), 40° C./75% RH/6 months
[9] = Control: without sodium bisulfite, brown ampule, Start
[10] = N2 gas replacement, sodium bisulfite 0.05%, brown ampule, irradiation 40 ×10^4 LUX
[11] = N2 gas replacement, sodium bisulfite 0.1%, brown ampule, irradiation 40 ×10^4 LUX
[12] = N2 gas replacement, sodium bisulfite […], brown ampule, irradiation 40 ×10^4 LUX
[13] = N2 gas replacement, without sodium bisulfite, brown ampule, irradiation 40 ×10^4 LUX
[14] = without N2 gas replacement, sodium bisulfite 0.1%, Captisol 10%, brown ampule, irradiation 40 ×10^4 LUX
[15] = without N2 gas replacement, sodium bisulfite 0.1%, Captisol 10%, brown ampule, irradiation 80 ×10^4 LUX
[16] = without N2 gas replacement, sodium bisulfite 0.1%, Captisol 10%, brown ampule, irradiation 120 ×10^4 LUX
[17] = without N2 gas replacement, sodium bisulfite 0.1%, Captisol 10%, colorless ampule, irradiation 40 ×10^4 LUX
[18] = without N2 gas replacement, sodium bisulfite 0.1%, Captisol 10%, colorless ampule, irradiation 80 ×10^4 LUX
[19] = without N2 gas replacement, sodium bisulfite 0.1%, Captisol 10%, colorless ampule, irradiation 120 ×10^4 LUX

- Insoluble materials ([1]; acetic acid/sodium acetate buffer, Captisol 7.5%, pH at preparation 3.8 (Table 4 no. 1), 5° C./6 months): ◯
- Storage period at which generation of insoluble matters was observed ([1]; acetic acid/sodium acetate buffer, Captisol 7.5%, pH at preparation 3.8 (Table 4 no. 1), 25° C./60% RH): (6 months)
- Insoluble materials ([1]; acetic acid/sodium acetate buffer, Captisol 7.5%, pH at preparation 3.8 (Table 4 no. 1), 25° C./60% RH/6 months): X
- Insoluble materials ([1]; acetic acid/sodium acetate buffer, Captisol 7.5%, pH at preparation 3.8 (Table 4 no. 1), 40° C./60% RH/6 months): ◯
- pH ([1]; acetic acid/sodium acetate buffer, Captisol 7.5%, pH at preparation 3.8 (Table 4 no. 1), 40° C./75% RH/6 months): 2.74
- Insoluble materials ([1]; acetic acid/sodium acetate buffer, Captisol 7.5%, pH at preparation 3.8 (Table 4 no. 1), just after autoclave sterilization): ◯
- Insoluble materials ([1]; acetic acid/sodium acetate buffer, Captisol 7.5%, pH at preparation 4.2 (Table 4 no. 2), 5° C./6 months): ◯
- Insoluble materials ([1]; acetic acid/sodium acetate buffer, Captisol 7.5%, pH at preparation 4.2 (Table 4 no. 2), 25° C./60% RH/6 months): ◯
- Storage period at which generation of insoluble matters was observed ([1]; acetic acid/sodium acetate buffer, Captisol 7.5%, pH at preparation 4.2 (Table 4 no. 2), 40° C./60% RH): (3 months)
- Insoluble materials ([1]; acetic acid/sodium acetate buffer, Captisol 7.5%, pH at preparation 4.2 (Table 4 no. 2), 40° C./60% RH/6 months): X
- pH ([1]; acetic acid/sodium acetate buffer, Captisol 7.5%, pH at preparation 4.2 (Table 4 no. 2), 40° C./75% RH/6 months): 2.96
- Insoluble materials ([1]; acetic acid/sodium acetate buffer, Captisol 7.5%, pH at preparation 4.2 (Table 4 no. 2), just after autoclave sterilization): ◯
- Insoluble materials ([1]; acetic acid/sodium acetate buffer, Captisol 10.0%, pH at preparation 3.8 (Table 4 no. 3), 5° C./6 months): ◯
- Insoluble materials ([1]; acetic acid/sodium acetate buffer, Captisol 10.0%, pH at preparation 3.8 (Table 4 no. 3), 25° C./60% RH/6 months): ◯
- Insoluble materials [1, 3]: ◯
- pH [1, 3]: 2.60
- Insoluble materials ([1]; acetic acid/sodium acetate buffer, Captisol 10.0%, pH at preparation 3.8 (Table 4 no. 3), just after autoclave sterilization): ◯
- Insoluble materials ([1]; acetic acid/sodium acetate buffer, Captisol 10.0%, pH at preparation 4.2 (Table 4 no. 4), 5° C./6 months): ◯
- Insoluble materials ([1]; acetic acid/sodium acetate buffer, Captisol 10.0%, pH at preparation 4.2 (Table 4 no. 4), 25° C./60% RH/6 months): ◯
- Insoluble materials [1, 4]: ◯
- pH [1, 4]: 2.82
- Insoluble materials ([1]; acetic acid/sodium acetate buffer, Captisol 10.0%, pH at preparation 4.2 (Table 4 no. 4), just after autoclave sterilization): ◯
- Insoluble materials ([1]; glycine buffer, Captisol 7.5%, pH at preparation 3.8 (Table 4 no. 5), 5° C./6 months): ◯
- Insoluble materials ([1]; glycine buffer, Captisol 7.5%, pH at preparation 3.8 (Table 4 no. 5), 25° C./60% RH/6 months): ◯
- Insoluble materials [1, 5]: ◯
- pH [1, 5]: 3.46
- Insoluble materials ([1]; glycine buffer, Captisol 7.5%, pH at preparation 3.8 (Table 4 no. 5), just after autoclave sterilization): ◯
- Insoluble materials ([1]; glycine buffer, Captisol 7.5%, pH at preparation 4.2 (Table 4 no. 6), 5° C./6 months): ◯
- Insoluble materials ([1]; glycine buffer, Captisol 7.5%, pH at preparation 4.2 (Table 4 no. 6), 25° C./60% RH/6 months): ◯
- Insoluble materials [1, 6]: ◯
- pH [1, 6]: 3.73
- Insoluble materials ([1]; glycine buffer, Captisol 7.5%, pH at preparation 4.2 (Table 4 no. 6), just after autoclave sterilization): ◯
- Insoluble materials ([1]; glycine buffer, Captisol 10.0%, pH at preparation 3.8 (Table 4 no. 7), 5° C./6 months): ◯
- Insoluble materials ([1]; glycine buffer, Captisol 10.0%, pH at preparation 3.8 (Table 4 no. 7), 25° C./60% RH/6 months): ◯
- Insoluble materials [1, 7]: ◯
- pH [1, 7]: 3.49
- Insoluble materials ([1]; glycine buffer, Captisol 10.0%, pH at preparation 3.8 (Table 4 no. 7), just after autoclave sterilization): ◯
- Insoluble materials ([1]; glycine buffer, Captisol 10.0%, pH at preparation 4.2 (Table 4 no. 8), 5° C./6 months): ◯
- Insoluble materials ([1]; glycine buffer, Captisol 10.0%, pH at preparation 4.2 (Table 4 no. 8), 25° C./60% RH/6 months): ◯
- Insoluble materials [1, 8]: ◯
- pH [1, 8]: 3.74
- Insoluble materials ([1]; glycine buffer, Captisol 10.0%, pH at preparation 4.2 (Table 4 no. 8), just after autoclave sterilization): ◯
- Related Substance Peak ratio [2, 9]: 0.629
- SUN N8075 Peak ratio [2, 9]: 99.37
- Related Substance Peak ratio [2, 10]: 0.608
- SUN N8075 Peak ratio [2, 10]: 99.39
- Related Substance Peak ratio [2, 11]: 0.567
- SUN N8075 Peak ratio [2, 11]: 99.43
- Related Substance Peak ratio [2, 12]: 0.581
- SUN N8075 Peak ratio [2, 12]: 99.42
- Related Substance Peak ratio [2, 13]: 0.967
- SUN N8075 Peak ratio [2, 13]: 99.03
- Related Substance Peak ratio [2, 14]: 1.140
- SUN N8075 Peak ratio [2, 14]: 98.86
- Related Substance Peak ratio [2, 15]: 1.301
- SUN N8075 Peak ratio [2, 15]: 98.70
- Related Substance Peak ratio [2, 16]: 1.750
- SUN N8075 Peak ratio [2, 16]: 98.25
- Related Substance Peak ratio [2, 17]: 4.552
- SUN N8075 Peak ratio [2, 17]: 95.45
- Related Substance Peak ratio [2, 18]: 4.953
- SUN N8075 Peak ratio [2, 18]: 95.05
- Related Substance Peak ratio [2, 19]: 5.987
- SUN N8075 Peak ratio [2, 19]: 94.01
SMILES: Cc1cc(OC[C@@H](O)CN2CCN(c3ccc(Cc4ccc(F)cc4)cc3)CC2)c(C)c(C)c1N [SUN N8075, (2S)-1-(4-amino-2,3,5-trimethylphenoxy)-3-{4-[4-(4-fluorobenzyl)phenyl]-1-piperazinyl}-2-propanol dimethane sulfonate]
